# Legend:
# [1] = CAP trial: plasma lipid, lipoprotein and apoprotein response to 40 mg/day simvastatin; format: in vivo, human; set-up: LDL-Cholesterol, Absolute Difference / HDL-Cholesterol, Absolute Difference / ApoA1, Absolute Difference / ApoB, Absolute Difference / IDL-Cholesterol, Absolute Difference: unit not given here; Total Cholesterol, Absolute Difference: unit: mg/dL; conditions: for ApoA1, Absolute Difference / ApoB, Absolute Difference / HDL-Cholesterol, Absolute Difference / IDL-Cholesterol, Absolute Difference / LDL-Cholesterol, Absolute Difference / Total Cholesterol, Absolute Difference: 40 mg/day simvastatin in vivo
# Description: Patients and cell lines. The Cholesterol/Atherosclerosis Pharmacogenetics (CAP) trial was a non-randomized, non-blinded study of 944 African-American and Caucasian men and women age 30 or older with baseline total cholesterol of 160 to 400 mg/dL.
# A subset of 66 African American patients from the CAP trial was chosen for testing of the HMGCR gene expression assay (Examples 1, 2, 3, 4 and 5). An African American was defined as an individual who had three or more grandparents who self-identified as African American. A Caucasian was defined as an individual who had three or more grandparents who self-identified as Caucasian American. The table below provides a summary of the demographics for this population.
# The table below provides a summary of the population demographics.
# A dose study was performed with a second subset of 60 African American patients (Examples 1, 3, 4, and 5). […] The population demographics for this group is shown below.
# [2] = system: total HMGCR (6-7) transcript; experiment: HMGCR gene expression by real time PCR in immortalized lymphocyte cell lines, exons 6 to 7 assay; format: cell-based, human; conditions: 24 hours
# Description: Cell lines were grown at 37° C., 5% CO2 in RPMI Medium 1640 (Invitrogen) supplemented with 10% fetal bovine serum (Hyclone), 500 units/ml Penicillin/Streptomycin (Invitrogen) and 2 nM GlutaMAX (Invitrogen). […] Media was changed 24 hours prior to exposure to ensure the cultures were in an active growth phase. After exposure, cells were pelleted, resuspended in Trizol (Invitrogen), and stored at −80° C. until RNA extraction.
# RNA isolation and cDNA synthesis. RNA was isolated from the cell/Trizol slurries following the manufacturer's protocol (Invitrogen). RNA quality was assessed by gel electrophoresis and A260/A280 measured via spectrophotometry. […]
# Real time PCR standards were generated by amplifying 100 ng lymphocyte cDNA with 1×PCR buffer, 1.5 mM MgCl2, 0.5 mM dNTPs, 1 mM of each primer, and 0.125 units Taq DNA polymerase (Invitrogen). […] Eight PCR reactions for each standard was generated, pooled, and quantitated via gel electrophoresis using a DNA low mass ladder (Invitrogen). […] PCR standards were run in triplicate on each plate to serve as a positive control for the assay and to quantitate levels of gene expression.
# SLC7A5 and CLPTM1 were quantitated in all samples by TaqMan assays purchased from Applied Biosystems (part numbers Hs0018526_m1 and Hs00171300_m1). […]
# HMGCR(12-13) and spliced HMGCR(12-14) mRNA was quantified via real time PCR as described above.
# [3] = Study Population A, African Americans, N 66
# [4] = Study Population B, Caucasian Americans, N 43
# [5] = Study Population C, African Americans, N 60
# [6] = on statin therapy, data in Examples 1-5
smiles,measurement,setting,value
CCC(C)(C)C(=O)O[C@H]1C[C@@H](C)C=C2C=C[C@H](C)[C@H](CC[C@@H]3C[C@@H](O)CC(=O)O3)[C@H]21 [simvastatin],mean HDL-cholesterol increase,"[1]; African Americans, on statin therapy",0.96 mg/dL
same,mean HDL-cholesterol increase,"[1]; Caucasian Americans, on statin therapy",2.17 mg/dL
same,"ApoA1, Absolute Difference",[1]; [3],−1.69 ± 1.76
same,"ApoB, Absolute Difference",[1]; [3],−27.11 ± 1.71
same,"HDL-Cholesterol, Absolute Difference",[1]; [3],0.96 ± 0.75
same,"IDL-Cholesterol, Absolute Difference",[1]; [3],−9.06 ± 0.75
same,"LDL-Cholesterol, Absolute Difference",[1]; [3],−51.17 ± 2.37
same,"Total Cholesterol, Absolute Difference",[1]; [3],−54.48 ± 2.79
same,"ApoA1, Absolute Difference",[1]; [4],−2.114 ± 2.271
same,"ApoB, Absolute Difference",[1]; [4],−33.091 ± 2.700
same,"HDL-Cholesterol, Absolute Difference",[1]; [4],2.155 ± 0.904
same,"IDL-Cholesterol, Absolute Difference",[1]; [4],−10.373 ± 1.066
same,"LDL-Cholesterol, Absolute Difference",[1]; [4],−63.909 ± 3.455
same,"Total Cholesterol, Absolute Difference",[1]; [4],−65.614 ± 3.791
same,"ApoA1, Absolute Difference",[1]; [5],2.80 ± 1.79
same,"ApoB, Absolute Difference",[1]; [5],−28.03 ± 1.88
same,"HDL-Cholesterol, Absolute Difference",[1]; [5],1.98 ± 0.55
same,"IDL-Cholesterol, Absolute Difference",[1]; [5],−10.23 ± 0.80
same,"LDL-Cholesterol, Absolute Difference",[1]; [5],−55.74 ± 3.36
same,"Total Cholesterol, Absolute Difference",[1]; [5],−57.73 ± 3.62
same,mean IDL cholesterol reduction (printed: mean total cholesterol reduction),[1]; [6],-9.85 mg/dL
same,mean LDL-cholesterol reduction,[1]; [6],-56.0 mg/dL
same,mean total cholesterol reduction,[1]; [6],-58.5 mg/dL
same,up-regulation of HMGCR(6-7),"[2]; African American cell lines, 14.5 μM simvastatin",1.65±0.48 fold
same,"total HMGCR (6-7) gene up-regulation, average fold change","[2]; cell lines derived from African Americans, 1.8 μM activated simvastatin",1.44 fold
